Measurements: the supplement of paper PMC13207355

Legend:
Settings in all cases: exposure time: 72 h
E28 [1] = patient-derived glioblastoma stem cells of classical subtype; experiment: surviving fraction (nuclei count normalised to DMSO); higher = more cells surviving (less toxic)
E57 [2] = patient-derived glioblastoma stem cells of mesenchymal subtype; experiment: as above
FT3469 [3] = normal neural stem cell line; experiment: as above
E34 [4] = patient-derived glioblastoma stem cells of proneural subtype; experiment: as above
E13 [5] = patient-derived glioblastoma stem cells of classical subtype; experiment: as above
E21 [6] = patient-derived glioblastoma stem cells of mesenchymal subtype; experiment: as above
E31 [7] = patient-derived glioblastoma stem cells of proneural subtype; experiment: as above
E28 [8] = experiment: phenotypic distance (Euclidean, principal components) from DMSO controls (arbitrary units); higher = stronger morphological change
E57 [9] = experiment: as above
FT3469 [10] = experiment: as above
E34 [11] = experiment: as above
E13 [12] = experiment: as above
E21 [13] = experiment: as above
E31 [14] = experiment: as above
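For phenotypic distance (Euclidean, principal components) from DMSO controls in this document: cell Painting imaging in 384-well plates, CellProfiler features reduced to at least 20 principal components, Euclidean distance versus same-plate DMSO vehicle wells (0.1% v/v), median over six images per well.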
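For surviving fraction (nuclei count normalised to DMSO) in this document: nuclei counted by high-content imaging of Hoechst-stained cells in laminin-coated 384-well plates, relative to 0.1% DMSO vehicle wells, with staurosporine as cell-death control.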

`O=C(CCBr)N1CCN(C(=O)CCBr)CC1` [Pipobroman] was tested, and the surviving fraction (E28 [1]; 4.1 nM) was 0.961, the surviving fraction (E28 [1]; 12.3 nM) was 1.13 and the surviving fraction (E28 [1]; 37 nM) was 0.966. The surviving fraction (E28 [1]; 111.1 nM) was 0.954, the surviving fraction (E28 [1]; 333.3 nM) was 0.979 and the surviving fraction (E28 [1]; 1000 nM) was 0.931. The surviving fraction (E28 [1]; 3000 nM) was 0.713, the surviving fraction (E57 [2]; 4.1 nM) was 1.05 and the surviving fraction (E57 [2]; 12.3 nM) was 1.02. It also gave a surviving fraction (E57 [2]; 37 nM) of 1.06, a surviving fraction (E57 [2]; 111.1 nM) of 1.07 and a surviving fraction (E57 [2]; 333.3 nM) of 1.07. For the same molecule, the surviving fraction (E57 [2]; 1000 nM) was 0.958, the surviving fraction (E57 [2]; 3000 nM) was 0.816 and the surviving fraction (FT3469 [3]; 4.1 nM) was 1.12. It also gave a surviving fraction (FT3469 [3]; 12.3 nM) of 1.08, a surviving fraction (FT3469 [3]; 37 nM) of 0.946 and a surviving fraction (FT3469 [3]; 111.1 nM) of 1. It also gave a surviving fraction (FT3469 [3]; 333.3 nM) of 1.05, a surviving fraction (FT3469 [3]; 1000 nM) of 0.961 and a surviving fraction (FT3469 [3]; 3000 nM) of 0.86. The surviving fraction (E34 [4]; 4.1 nM) was 1.03, the surviving fraction (E34 [4]; 12.3 nM) was 0.865 and the surviving fraction (E34 [4]; 37 nM) was 1.08. The surviving fraction (E34 [4]; 111.1 nM) was 1.06, the surviving fraction (E34 [4]; 333.3 nM) was 1.01 and the surviving fraction (E34 [4]; 1000 nM) was 0.892. It also gave a surviving fraction (E34 [4]; 3000 nM) of 1.1, a surviving fraction (E13 [5]; 4.1 nM) of 0.929 and a surviving fraction (E13 [5]; 12.3 nM) of 0.984. It also gave a surviving fraction (E13 [5]; 37 nM) of 1.02, a surviving fraction (E13 [5]; 111.1 nM) of 0.921 and a surviving fraction (E13 [5]; 333.3 nM) of 0.977. For the same molecule, the surviving fraction (E13 [5]; 1000 nM) was 0.982, the surviving fraction (E13 [5]; 3000 nM) was 0.98 and the surviving fraction (E21 [6]; 4.1 nM) was 1.13. The surviving fraction (E21 [6]; 12.3 nM) was 0.912, the surviving fraction (E21 [6]; 37 nM) was 1.01 and the surviving fraction (E21 [6]; 111.1 nM) was 0.966. It also gave a surviving fraction (E21 [6]; 333.3 nM) of 1.05, a surviving fraction (E21 [6]; 1000 nM) of 0.836 and a surviving fraction (E21 [6]; 3000 nM) of 0.811. It also gave a surviving fraction (E31 [7]; 4.1 nM) of 0.99, a surviving fraction (E31 [7]; 12.3 nM) of 0.958 and a surviving fraction (E31 [7]; 37 nM) of 0.924. It also gave a surviving fraction (E31 [7]; 111.1 nM) of 0.976, a surviving fraction (E31 [7]; 333.3 nM) of 0.859 and a surviving fraction (E31 [7]; 1000 nM) of 0.759. It also gave a surviving fraction (E31 [7]; 3000 nM) of 0.716, a phenotypic distance (E28 [8]; 4.1 nM) of 0.503 and a phenotypic distance (E28 [8]; 12.3 nM) of 0.763. The phenotypic distance (E28 [8]; 37 nM) was 0.907, the phenotypic distance (E28 [8]; 111.1 nM) was 0.719 and the phenotypic distance (E28 [8]; 333.3 nM) was 0.82. The phenotypic distance (E28 [8]; 1000 nM) was 0.794, the phenotypic distance (E28 [8]; 3000 nM) was 1.56 and the phenotypic distance (E57 [9]; 4.1 nM) was 0.542. For the same molecule, the phenotypic distance (E57 [9]; 12.3 nM) was 0.868, the phenotypic distance (E57 [9]; 37 nM) was 0.587 and the phenotypic distance (E57 [9]; 111.1 nM) was 0.428. For the same molecule, the phenotypic distance (E57 [9]; 333.3 nM) was 0.404, the phenotypic distance (E57 [9]; 1000 nM) was 0.464 and the phenotypic distance (E57 [9]; 3000 nM) was 1.79. The phenotypic distance (FT3469 [10]; 4.1 nM) was 0.541, the phenotypic distance (FT3469 [10]; 12.3 nM) was 0.755 and the phenotypic distance (FT3469 [10]; 37 nM) was 0.771. It also gave a phenotypic distance (FT3469 [10]; 111.1 nM) of 0.734, a phenotypic distance (FT3469 [10]; 333.3 nM) of 0.615 and a phenotypic distance (FT3469 [10]; 1000 nM) of 1.02. The phenotypic distance (FT3469 [10]; 3000 nM) was 1.65, the phenotypic distance (E34 [11]; 4.1 nM) was 0.724 and the phenotypic distance (E34 [11]; 12.3 nM) was 0.45. The phenotypic distance (E34 [11]; 37 nM) was 0.596, the phenotypic distance (E34 [11]; 111.1 nM) was 0.698 and the phenotypic distance (E34 [11]; 333.3 nM) was 0.871. The phenotypic distance (E34 [11]; 1000 nM) was 0.646, the phenotypic distance (E34 [11]; 3000 nM) was 0.982 and the phenotypic distance (E13 [12]; 4.1 nM) was 0.472. It also gave a phenotypic distance (E13 [12]; 12.3 nM) of 0.7, a phenotypic distance (E13 [12]; 37 nM) of 0.541 and a phenotypic distance (E13 [12]; 111.1 nM) of 0.407. For the same molecule, the phenotypic distance (E13 [12]; 333.3 nM) was 0.764, the phenotypic distance (E13 [12]; 1000 nM) was 0.638 and the phenotypic distance (E13 [12]; 3000 nM) was 0.745. It also gave a phenotypic distance (E21 [13]; 4.1 nM) of 0.8, a phenotypic distance (E21 [13]; 12.3 nM) of 0.777 and a phenotypic distance (E21 [13]; 37 nM) of 0.578. For the same molecule, the phenotypic distance (E21 [13]; 111.1 nM) was 0.528, the phenotypic distance (E21 [13]; 333.3 nM) was 0.76 and the phenotypic distance (E21 [13]; 1000 nM) was 0.889. For the same molecule, the phenotypic distance (E21 [13]; 3000 nM) was 2.2, the phenotypic distance (E31 [14]; 4.1 nM) was 0.424 and the phenotypic distance (E31 [14]; 12.3 nM) was 0.596. The phenotypic distance (E31 [14]; 37 nM) was 0.531, the phenotypic distance (E31 [14]; 111.1 nM) was 0.433 and the phenotypic distance (E31 [14]; 333.3 nM) was 0.574. It also gave a phenotypic distance (E31 [14]; 1000 nM) of 1.19 and a phenotypic distance (E31 [14]; 3000 nM) of 1.45.
